What was measured:
rodent = settings: in vivo; cited from earlier work
[1] = tested on: mRNA expressed from the genes (A) to (D) in rat liver; experiment: Behavior of genes (mRNA expression level, oligo-DNA microarray) in rat liver after 28-day oral administration; type: in vivo
Procedure, shortened: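 Liver mRNA measured by oligo-DNA microarray after 28 days of once-daily oral gavage in 5-week-old male F344 rats (n=4 per group), with vehicle controls given equal solvent volume. Significance threshold: 1.5-fold up or down versus control, with changes opposite in direction to other carcinogens counted as not significant.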

liver = settings: in vivo; cited from earlier work
[2] = (C), Unigene Rn.120914, defined direction +, rat liver, oral once daily 28 days
[3] = gene group (A), Unigene No. Rn.167075, mRNA vs vehicle control group
[4] = gene group (C), Unigene No. Rn.120914, mRNA vs vehicle control group

O=NN1CCOCC1 [TS014, N-Nitrosomorpholine]
Carcinogenicity (rodent): C+
Behavior of gene caused by administration of chemical substance, Gene No. 4846 ([1]; (A), Unigene Rn.144554, defined direction +, rat liver, oral once daily 28 days): +
Behavior of gene caused by administration of chemical substance, Gene No. 4218 ([1]; (A), Unigene Rn.167075, defined direction +, rat liver, oral once daily 28 days, significant = 1.5 times or more or 1/1.5 or less of control): +
Behavior of gene caused by administration of chemical substance, Gene No. 2026 ([1]; (A), Unigene Rn.167075, defined direction −, rat liver, oral once daily 28 days): +
Behavior of gene caused by administration of chemical substance, Gene No. 6182 ([1]; (A), Unigene Rn.5834, defined direction +, rat liver, oral once daily 28 days): +
Behavior of gene caused by administration of chemical substance, Gene No. 5600 ([1]; (A), Unigene Rn.9836, defined direction +, rat liver, oral once daily 28 days): +
Behavior of gene caused by administration of chemical substance, Gene No. 1494 ([1]; (B), Unigene Rn.1430, defined direction −, rat liver, oral once daily 28 days): +
Behavior of gene caused by administration of chemical substance, Gene No. 2045 ([1]; (B), Unigene Rn.19329, defined direction +, rat liver, oral once daily 28 days): −
Behavior of gene caused by administration of chemical substance, Gene No. 2203 ([1]; (B), Unigene Rn.21240, defined direction +, rat liver, oral once daily 28 days): −
Behavior of gene caused by administration of chemical substance, Gene No. 533 ([1]; (C), Unigene Rn.106184, defined direction +, rat liver, oral once daily 28 days): −
Behavior of gene caused by administration of chemical substance, Gene No. 725 ([1]; (C), Unigene Rn.108075, defined direction −, rat liver, oral once daily 28 days): −
Behavior of gene caused by administration of chemical substance, Gene No. 1163 ([1]; (C), Unigene Rn.11766, defined direction +, rat liver, oral once daily 28 days): +
Behavior of gene caused by administration of chemical substance, Gene No. 4973 ([1]; (C), Unigene Rn.118529, defined direction −, rat liver, oral once daily 28 days): −
Behavior of gene caused by administration of chemical substance, Gene No. 4095 ([1]; (C), Unigene Rn.119024, defined direction −, rat liver, oral once daily 28 days): −
Behavior of gene caused by administration of chemical substance, Gene No. 1334 [1, 2]: −
Behavior of gene caused by administration of chemical substance, Gene No. 6620 [1, 2]: −
Behavior of gene caused by administration of chemical substance, Gene No. 6303 ([1]; (C), Unigene Rn.123063, defined direction −, rat liver, oral once daily 28 days): −
Behavior of gene caused by administration of chemical substance, Gene No. 5878 ([1]; (C), Unigene Rn.143213, defined direction −, rat liver, oral once daily 28 days): −
Behavior of gene caused by administration of chemical substance, Gene No. 1131 ([1]; (C), Unigene Rn.144946, defined direction −, rat liver, oral once daily 28 days): −
Behavior of gene caused by administration of chemical substance, Gene No. 1562 ([1]; (C), Unigene Rn.14744, defined direction −, rat liver, oral once daily 28 days): −
Behavior of gene caused by administration of chemical substance, Gene No. 1741 ([1]; (C), Unigene Rn.1647, defined direction −, rat liver, oral once daily 28 days): −
Behavior of gene caused by administration of chemical substance, Gene No. 893 ([1]; (C), Unigene Rn.164817, defined direction +, rat liver, oral once daily 28 days): −
Behavior of gene caused by administration of chemical substance, Gene No. 6026 ([1]; (C), Unigene Rn.167685, defined direction −, rat liver, oral once daily 28 days): −
Behavior of gene caused by administration of chemical substance, Gene No. 154 ([1]; (C), Unigene Rn.185941, defined direction −, rat liver, oral once daily 28 days): −
Behavior of gene caused by administration of chemical substance, Gene No. 1993 ([1]; (C), Unigene Rn.18728, defined direction −, rat liver, oral once daily 28 days): +
Behavior of gene caused by administration of chemical substance, Gene No. 813 ([1]; (C), Unigene Rn.201760, defined direction +, rat liver, oral once daily 28 days): +
Behavior of gene caused by administration of chemical substance, Gene No. 2494 ([1]; (C), Unigene Rn.23969, defined direction +, rat liver, oral once daily 28 days): −
Behavior of gene caused by administration of chemical substance, Gene No. 2546 ([1]; (C), Unigene Rn.24561, defined direction −, rat liver, oral once daily 28 days): −
Behavior of gene caused by administration of chemical substance, Gene No. 3776 ([1]; (C), Unigene Rn.43232, defined direction −, rat liver, oral once daily 28 days): −
Behavior of gene caused by administration of chemical substance, Gene No. 3929 ([1]; (C), Unigene Rn.4620, defined direction +, rat liver, oral once daily 28 days): −
Behavior of gene caused by administration of chemical substance, Gene No. 1119 ([1]; (C), Unigene Rn.9757, defined direction +, rat liver, oral once daily 28 days): −
Behavior of gene caused by administration of chemical substance, Gene No. 6742 ([1]; (C), Unigene Rn.9779, defined direction +, rat liver, oral once daily 28 days): −
Behavior of gene caused by administration of chemical substance, Gene No. 5634 ([1]; (C), Unigene Rn.9862, defined direction −, rat liver, oral once daily 28 days): −
Behavior of gene caused by administration of chemical substance, Gene No. 5726 ([1]; (D), Unigene Rn.9939, defined direction −, rat liver, oral once daily 28 days): −
Liver carcinogenicity (liver): Cr+

ClC1=C(Cl)C2(Cl)C3C4C=CC(C4)C3C1(Cl)C2(Cl)Cl (stereo not shown) [TS015, Aldrin]
Carcinogenicity (rodent): C+
Behavior of gene caused by administration of chemical substance, Gene No. 4846 ([1]; gene group (A), Unigene No. Rn.144554, mRNA vs vehicle control group): −
Behavior of gene caused by administration of chemical substance, Gene No. 2026 [1, 3]: −
Behavior of gene caused by administration of chemical substance, Gene No. 4218 [1, 3]: −
Behavior of gene caused by administration of chemical substance, Gene No. 6182 ([1]; gene group (A), Unigene No. Rn.5834, mRNA vs vehicle control group): +
Behavior of gene caused by administration of chemical substance, Gene No. 5600 ([1]; gene group (A), Unigene No. Rn.9836, mRNA vs vehicle control group): −
Behavior of gene caused by administration of chemical substance, Gene No. 1494 ([1]; gene group (B), Unigene No. Rn.1430, mRNA vs vehicle control group): −
Behavior of gene caused by administration of chemical substance, Gene No. 2045 ([1]; gene group (B), Unigene No. Rn.19329, mRNA vs vehicle control group): +
Behavior of gene caused by administration of chemical substance, Gene No. 2203 ([1]; gene group (B), Unigene No. Rn.21240, mRNA vs vehicle control group): +
Behavior of gene caused by administration of chemical substance, Gene No. 533 ([1]; gene group (C), Unigene No. Rn.106184, mRNA vs vehicle control group): −
Behavior of gene caused by administration of chemical substance, Gene No. 725 ([1]; gene group (C), Unigene No. Rn.108075, mRNA vs vehicle control group): −
Behavior of gene caused by administration of chemical substance, Gene No. 1163 ([1]; gene group (C), Unigene No. Rn.11766, mRNA vs vehicle control group): −
Behavior of gene caused by administration of chemical substance, Gene No. 4973 ([1]; gene group (C), Unigene No. Rn.118529, mRNA vs vehicle control group): −
Behavior of gene caused by administration of chemical substance, Gene No. 4095 ([1]; gene group (C), Unigene No. Rn.119024, mRNA vs vehicle control group): −
Behavior of gene caused by administration of chemical substance, Gene No. 1334 [1, 4]: −
Behavior of gene caused by administration of chemical substance, Gene No. 6620 [1, 4]: −
Behavior of gene caused by administration of chemical substance, Gene No. 6303 ([1]; gene group (C), Unigene No. Rn.123063, mRNA vs vehicle control group): −
Behavior of gene caused by administration of chemical substance, Gene No. 5878 ([1]; gene group (C), Unigene No. Rn.143213, mRNA vs vehicle control group): −
Behavior of gene caused by administration of chemical substance, Gene No. 1131 ([1]; gene group (C), Unigene No. Rn.144946, mRNA vs vehicle control group): −
Behavior of gene caused by administration of chemical substance, Gene No. 1562 ([1]; gene group (C), Unigene No. Rn.14744, mRNA vs vehicle control group): −
Behavior of gene caused by administration of chemical substance, Gene No. 1741 ([1]; gene group (C), Unigene No. Rn.1647, mRNA vs vehicle control group): −
Behavior of gene caused by administration of chemical substance, Gene No. 893 ([1]; gene group (C), Unigene No. Rn.164817, mRNA vs vehicle control group): −
Behavior of gene caused by administration of chemical substance, Gene No. 6026 ([1]; gene group (C), Unigene No. Rn.167685, mRNA vs vehicle control group): −
Behavior of gene caused by administration of chemical substance, Gene No. 154 ([1]; gene group (C), Unigene No. Rn.185941, mRNA vs vehicle control group): −
Behavior of gene caused by administration of chemical substance, Gene No. 1993 ([1]; gene group (C), Unigene No. Rn.18728, mRNA vs vehicle control group): −
Behavior of gene caused by administration of chemical substance, Gene No. 813 ([1]; gene group (C), Unigene No. Rn.201760, mRNA vs vehicle control group): −
Behavior of gene caused by administration of chemical substance, Gene No. 2494 ([1]; gene group (C), Unigene No. Rn.23969, mRNA vs vehicle control group): +
Behavior of gene caused by administration of chemical substance, Gene No. 2546 ([1]; gene group (C), Unigene No. Rn.24561, mRNA vs vehicle control group): −
Behavior of gene caused by administration of chemical substance, Gene No. 3776 ([1]; gene group (C), Unigene No. Rn.43232, mRNA vs vehicle control group): −
Behavior of gene caused by administration of chemical substance, Gene No. 3929 ([1]; gene group (C), Unigene No. Rn.4620, mRNA vs vehicle control group): −
Behavior of gene caused by administration of chemical substance, Gene No. 1119 ([1]; gene group (C), Unigene No. Rn.9757, mRNA vs vehicle control group): −
Behavior of gene caused by administration of chemical substance, Gene No. 6742 ([1]; gene group (C), Unigene No. Rn.9779, mRNA vs vehicle control group): −
Behavior of gene caused by administration of chemical substance, Gene No. 5634 ([1]; gene group (C), Unigene No. Rn.9862, mRNA vs vehicle control group): −
Behavior of gene caused by administration of chemical substance, Gene No. 5726 ([1]; gene group (D), Unigene No. Rn.9939, mRNA vs vehicle control group): −
Liver carcinogenicity (liver): Cr−

Source: patent publication US20110039721A1, “METHOD FOR PREDICTION ABOUT CARCINOGENICITY OF SUBSTANCE IN RODENT” (Chemicals Evaluation and Research Institute, priority 2007, published 2011)
